From US20100298141A1, “SUBSTITUTED PYRIDINE N-OXIDE HERBICIDES” (E. I. DU PONT DE NEMOURS AND COMPANY, priority 2007, published 2010)

Assays:
redroot pigweed = assay: Test A pre-/postemergence greenhouse test; assay type: in vivo, Amaranthus retroflexus; details: for Plant response rating, Pigweed: 0 to 100 scale where 0 is no effect and 100 is complete control; for Pigweed plant response rating: 0 to 100 scale
Procedure, shortened: (§1)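 Planting was into mixed loam soil and sand; preemergence treatment followed as a directed soil spray. Concurrently, emerged plants (one- to two-leaf, 2–10 cm) received postemergence applications of identically formulated compound (non-phytotoxic solvent, surfactant). After approximately ten days under greenhouse conditions, injury was judged by eye against untreated plants.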

umbrella sedge = assay: Test C flooded paddy test; assay type: in vivo, Cyperus difformis; details: Flood
From the text: (§2) At time of treatment, test pots were flooded to 3 cm above the soil surface, treated by application of test compounds directly to the paddy water, and then maintained at that water depth for the duration of the test. Treated plants and controls were maintained in a greenhouse for 13 to 15 days, after which time all species were compared to controls and visually evaluated. […] A dash (-) response means no test result.

morningglory = assay: Test A pre-/postemergence greenhouse test; assay type: in vivo, Ipomoea spp.; details: for Plant response rating, Morningglory: 0 to 100 scale where 0 is no effect and 100 is complete control; for Morningglory plant response rating: 0 to 100 scale
Procedure, shortened: as §1

crabgrass = assay: Test A pre-/postemergence greenhouse test; assay type: in vivo, Digitaria sanguinalis; details: for Plant response rating, Crabgrass, Large: 0 to 100 scale where 0 is no effect and 100 is complete control; for Crabgrass, Large plant response rating: 0 to 100 scale
Procedure, shortened: as §1

duck salad = assay: Test C flooded paddy test; assay type: in vivo, Heteranthera limosa; details: Flood
From the text: as §2

velvetleaf = assay: Test A pre-/postemergence greenhouse test; assay type: in vivo, Abutilon theophrasti; details: for Plant response rating, Velvetleaf: 0 to 100 scale where 0 is no effect and 100 is complete control; for Velvetleaf plant response rating: 0 to 100 scale
Procedure, shortened: as §1

wheat = assay: Test A pre-/postemergence greenhouse test; assay type: in vivo, Triticum aestivum; details: for Plant response rating, Wheat: 0 to 100 scale where 0 is no effect and 100 is complete control; for Wheat plant response rating: 0 to 100 scale
Procedure, shortened: as §1

barnyardgrass [1] = assay: Test A pre-/postemergence greenhouse test; assay type: in vivo, Echinochloa crus-galli; details: for Plant response rating, Barnyardgrass: 0 to 100 scale where 0 is no effect and 100 is complete control; for Barnyardgrass plant response rating: 0 to 100 scale
Procedure, shortened: as §1

giant foxtail = assay: Test A pre-/postemergence greenhouse test; assay type: in vivo, Setaria faberi; details: for Plant response rating, Foxtail, Giant: 0 to 100 scale where 0 is no effect and 100 is complete control; for Foxtail, Giant plant response rating: 0 to 100 scale
Procedure, shortened: as §1

rice = assay: Test C flooded paddy test; assay type: in vivo, Oryza sativa; details: Flood
From the text: as §2

corn = assay: Test A pre-/postemergence greenhouse test; assay type: in vivo, Zea mays; details: for Plant response rating, Corn: 0 to 100 scale where 0 is no effect and 100 is complete control; for Corn plant response rating: 0 to 100 scale
Procedure, shortened: as §1

barnyardgrass [2] = assay: Test C flooded paddy test; assay type: in vivo, Echinochloa crus-galli; details: Flood
From the text: as §2

[3] = Postemergence, 500 g ai/ha, 0 is no effect, 100 is complete control
[4] = Preemergence, 125 g ai/ha, 0 no effect, 100 complete control
[5] = Preemergence, 500 g ai/ha, 0 no effect, 100 complete control
[6] = 31 g ai/ha, scale 0 to 100 (0 no effect, 100 complete control)
[7] = 62 g ai/ha, scale 0 to 100 (0 no effect, 100 complete control)
[8] = 125 g ai/ha, scale 0 to 100, 0 no effect, 100 complete control, 13 to 15 days
[9] = 250 g ai/ha, scale 0 to 100, 0 no effect, 100 complete control, 13 to 15 days

Cn1nc(C(F)(F)F)c(CS(=O)(=O)c2ccc(F)c[n+]2[O-])c1OC(F)F [Compound 107]
Plant response rating, Pigweed (redroot pigweed; Postemergence, 125 g ai/ha): 40
Pigweed plant response rating (redroot pigweed; [3]): 50
Pigweed plant response rating (redroot pigweed; [4]): 40
Pigweed plant response rating (redroot pigweed; [5]): 60
Plant response rating, Sedge, Umbrella (umbrella sedge; [6]): 0
Plant response rating, Sedge, Umbrella (umbrella sedge; [7]): 0
Plant response rating, Sedge, Umbrella (umbrella sedge; [8]): 0
Plant response rating, Sedge, Umbrella (umbrella sedge; [9]): 20
Plant response rating, Morningglory (morningglory; Postemergence, 125 g ai/ha): 0
Morningglory plant response rating (morningglory; [3]): 50
Morningglory plant response rating (morningglory; [4]): 0
Morningglory plant response rating (morningglory; [5]): 60
Plant response rating, Crabgrass, Large (crabgrass; Postemergence, 125 g ai/ha): 70
Crabgrass, Large plant response rating (crabgrass; [3]): 80
Crabgrass, Large plant response rating (crabgrass; [4]): 60
Crabgrass, Large plant response rating (crabgrass; [5]): 80
Plant response rating, Ducksalad (duck salad; [6]): 0
Plant response rating, Ducksalad (duck salad; [7]): 0
Plant response rating, Ducksalad (duck salad; [8]): 0
Plant response rating, Ducksalad (duck salad; [9]): 65
Plant response rating, Velvetleaf (velvetleaf; Postemergence, 125 g ai/ha): 0
Velvetleaf plant response rating (velvetleaf; [3]): 0
Velvetleaf plant response rating (velvetleaf; [4]): 0
Velvetleaf plant response rating (velvetleaf; [5]): 10
Plant response rating, Wheat (wheat; Postemergence, 125 g ai/ha): 0
Wheat plant response rating (wheat; [3]): 0
Wheat plant response rating (wheat; [4]): 0
Wheat plant response rating (wheat; [5]): 0
Plant response rating, Barnyardgrass (barnyardgrass [1]; Postemergence, 125 g ai/ha): 40
Barnyardgrass plant response rating (barnyardgrass [1]; [3]): 60
Barnyardgrass plant response rating (barnyardgrass [1]; [4]): 70
Barnyardgrass plant response rating (barnyardgrass [1]; [5]): 90
Plant response rating, Foxtail, Giant (giant foxtail; Postemergence, 125 g ai/ha): 70
Foxtail, Giant plant response rating (giant foxtail; [3]): 80
Foxtail, Giant plant response rating (giant foxtail; [4]): 60
Foxtail, Giant plant response rating (giant foxtail; [5]): 90
Plant response rating, Rice (rice; [6]): 0
Plant response rating, Rice (rice; [7]): 0
Plant response rating, Rice (rice; [8]): 0
Plant response rating, Rice (rice; [9]): 0
Plant response rating, Corn (corn; Postemergence, 125 g ai/ha): 0
Corn plant response rating (corn; [3]): 0
Corn plant response rating (corn; [4]): 0
Corn plant response rating (corn; [5]): 0
Plant response rating, Barnyardgrass (barnyardgrass [2]; [6]): 0
Plant response rating, Barnyardgrass (barnyardgrass [2]; [7]): 0
Plant response rating, Barnyardgrass (barnyardgrass [2]; [8]): 20
Plant response rating, Barnyardgrass (barnyardgrass [2]; [9]): 40

Cn1nc(C(F)(F)C(F)(F)F)c(CS(=O)(=O)c2ccc(Cl)c[n+]2[O-])c1OCC(F)(F)F [Compound 100]
Plant response rating, Pigweed (redroot pigweed; Postemergence, 125 g ai/ha): 0
Pigweed plant response rating (redroot pigweed; [3]): 60
Pigweed plant response rating (redroot pigweed; [4]): 60
Pigweed plant response rating (redroot pigweed; [5]): 80
Plant response rating, Sedge, Umbrella (umbrella sedge; [7]): 0
Plant response rating, Sedge, Umbrella (umbrella sedge; [9]): 0
Plant response rating, Morningglory (morningglory; Postemergence, 125 g ai/ha): 0
Morningglory plant response rating (morningglory; [3]): 20
Morningglory plant response rating (morningglory; [4]): 0
Morningglory plant response rating (morningglory; [5]): 10
Plant response rating, Crabgrass, Large (crabgrass; Postemergence, 125 g ai/ha): 40
Crabgrass, Large plant response rating (crabgrass; [3]): 80
Crabgrass, Large plant response rating (crabgrass; [4]): 40
Crabgrass, Large plant response rating (crabgrass; [5]): 80
Plant response rating, Ducksalad (duck salad; [7]): 0
Plant response rating, Ducksalad (duck salad; [9]): 30
Plant response rating, Velvetleaf (velvetleaf; Postemergence, 125 g ai/ha): 0
Velvetleaf plant response rating (velvetleaf; [3]): 20
Velvetleaf plant response rating (velvetleaf; [4]): 0
Velvetleaf plant response rating (velvetleaf; [5]): 50
Plant response rating, Wheat (wheat; Postemergence, 125 g ai/ha): 0
Wheat plant response rating (wheat; [3]): 0
Wheat plant response rating (wheat; [4]): 0
Wheat plant response rating (wheat; [5]): 10
Plant response rating, Barnyardgrass (barnyardgrass [1]; Postemergence, 125 g ai/ha): 40
Barnyardgrass plant response rating (barnyardgrass [1]; [3]): 60
Barnyardgrass plant response rating (barnyardgrass [1]; [4]): 0
Barnyardgrass plant response rating (barnyardgrass [1]; [5]): 90
Plant response rating, Foxtail, Giant (giant foxtail; Postemergence, 125 g ai/ha): 50
Foxtail, Giant plant response rating (giant foxtail; [3]): 90
Foxtail, Giant plant response rating (giant foxtail; [4]): 60
Foxtail, Giant plant response rating (giant foxtail; [5]): 90
Plant response rating, Rice (rice; [7]): 0
Plant response rating, Rice (rice; [9]): 0
Plant response rating, Corn (corn; Postemergence, 125 g ai/ha): 0
Corn plant response rating (corn; [3]): 0
Corn plant response rating (corn; [4]): 0
Corn plant response rating (corn; [5]): 0
Plant response rating, Barnyardgrass (barnyardgrass [2]; [7]): 0
Plant response rating, Barnyardgrass (barnyardgrass [2]; [9]): 0
